Biological target: Recombinant human KIF18A (1-467His-tagged) protein (Homo sapiens (Human), UniProt Q8NI77)
Test: KIF18A enzyme assay (microtubule-stimulated ATPase activity, ADP-Glo)
Assay type: biochemical
Details: 30 nM KIF18A, ATP 75 μM, read-out: inhibitory activity against KIF18A IC50
Protocol: Biological Example 1. Assay for In Vitro Inhibition of Enzymatic Activity of KIF18A by Compounds of the Present Invention
KIF18A enzyme assay: The enzymatic activity of KIF18A after treatment with the compounds was measured by an assay of microtubule-stimulated ATPase activity. ADP generated from the ATPase reaction was measured in this assay. The compounds were serially diluted 2-fold in DMSO over a range of 22 concentration points. Recombinant human KIF18A (1-467His-tagged) protein was expressed using a baculovirus system. Concentrations of KIF18A protein, microtubules, and ATP in the reaction were optimized for a standardized homogenous enzyme assay using an ADP-Glo kinase/ATPase assay kit. A reaction buffer [(15 mM Tris, pH 7.5), 10 mM MgCl2, 0.01% PluronicF-68, 1 μM paclitaxel, and 30 μg/mL pig microtubules] was prepared. The compounds and KIF18A protein (30 nM) were added to the prepared reaction buffer, and the reaction mixture was incubated at room temperature for 15 min, followed by addition of ATP (Km, 75 μM). The resulting reaction mixture was incubated at room temperature for another 15 min. 5 μL of ADP-Glo reagent and 2.5 μL of the reaction mixture were mixed and the resulting mixture was incubated at room temperature for 40 min. 10 μL of ADP-Glo detection reagent was added and the mixture was incubated at room temperature for 40 min. Luminescence was measured using a microplate reader and compared with that of the DMSO group, and then the inhibition percentages and IC50 values of the compounds were calculated.

Recombinant human KIF18A (1-467His-tagged) protein, sequence (Q8NI77 1-467): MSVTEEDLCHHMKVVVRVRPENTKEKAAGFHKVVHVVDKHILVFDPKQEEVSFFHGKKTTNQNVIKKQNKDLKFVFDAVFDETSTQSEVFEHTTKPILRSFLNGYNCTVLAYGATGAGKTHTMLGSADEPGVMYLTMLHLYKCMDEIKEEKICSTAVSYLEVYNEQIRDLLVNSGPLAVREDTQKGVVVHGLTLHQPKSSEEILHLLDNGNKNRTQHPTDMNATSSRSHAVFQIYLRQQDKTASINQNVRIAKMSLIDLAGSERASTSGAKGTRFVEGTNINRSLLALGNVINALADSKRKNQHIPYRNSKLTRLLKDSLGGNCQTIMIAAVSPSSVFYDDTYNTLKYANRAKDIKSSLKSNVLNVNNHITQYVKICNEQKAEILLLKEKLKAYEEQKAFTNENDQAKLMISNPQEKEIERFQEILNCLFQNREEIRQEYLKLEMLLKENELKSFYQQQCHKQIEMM
Recombinant human KIF18A (1-467His-tagged) protein, sequence (P02550 whole entry partner): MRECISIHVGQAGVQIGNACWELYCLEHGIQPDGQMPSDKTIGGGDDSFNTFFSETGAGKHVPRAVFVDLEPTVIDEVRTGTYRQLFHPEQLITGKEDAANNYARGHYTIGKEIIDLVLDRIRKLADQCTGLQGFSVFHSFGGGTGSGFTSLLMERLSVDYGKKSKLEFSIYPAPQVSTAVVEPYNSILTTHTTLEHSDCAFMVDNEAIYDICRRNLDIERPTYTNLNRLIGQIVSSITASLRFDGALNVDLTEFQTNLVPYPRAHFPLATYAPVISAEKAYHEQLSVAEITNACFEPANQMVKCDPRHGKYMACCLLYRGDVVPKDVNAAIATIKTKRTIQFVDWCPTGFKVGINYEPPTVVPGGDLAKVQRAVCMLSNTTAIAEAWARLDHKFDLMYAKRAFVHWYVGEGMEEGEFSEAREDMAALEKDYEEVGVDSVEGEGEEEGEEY
Recombinant human KIF18A (1-467His-tagged) protein, sequence (P02554 whole entry partner): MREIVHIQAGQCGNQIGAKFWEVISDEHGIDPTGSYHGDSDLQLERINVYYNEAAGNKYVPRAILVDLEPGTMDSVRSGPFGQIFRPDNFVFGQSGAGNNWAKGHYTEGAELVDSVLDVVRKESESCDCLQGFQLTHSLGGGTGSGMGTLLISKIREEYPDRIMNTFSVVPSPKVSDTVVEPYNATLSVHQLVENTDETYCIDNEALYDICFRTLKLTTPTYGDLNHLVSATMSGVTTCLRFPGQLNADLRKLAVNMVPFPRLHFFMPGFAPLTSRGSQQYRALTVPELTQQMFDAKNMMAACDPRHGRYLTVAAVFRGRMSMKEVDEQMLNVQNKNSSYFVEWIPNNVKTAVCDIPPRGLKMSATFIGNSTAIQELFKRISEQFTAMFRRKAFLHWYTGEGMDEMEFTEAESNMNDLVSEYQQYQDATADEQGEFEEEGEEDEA

IC50, ≤ 100 nM:
C[C@H](CO)NS(=O)(=O)c1ccc(NC(=O)c2cc3c(c(N4CCO[C@H](C)C4)n2)OCC3)c(N2CCC3(CC2)CC3)c1 [Compound 128]
C[C@@H]1CN(c2cc(NC(=O)c3ccc(NS(=O)(=O)CCO)cc3N3CCC4(CC3)CC4)cc3ccoc23)CCO1 [Compound 130]
C[C@H]1CN(c2cc(NC(=O)c3ccc(NS(=O)(=O)CCO)cc3N3CCC4(CC3)CC4)cc3ccoc23)CCO1 [Compound 131]
O=C(Nc1cc(N2CC(F)(F)C2)c2occc2c1)c1ccc(NS(=O)(=O)CCO)cc1N1CCC2(CC1)CC2 [Compound 132]
O=C(Nc1cc(OCCC(F)(F)F)c2occc2c1)c1ccc(NS(=O)(=O)CCO)cc1N1CCC2(CC1)CC2 [Compound 133]
O=C(Nc1cc(N2CCC3(CC3)C2)c2occc2c1)c1ccc(NS(=O)(=O)CCO)cc1N1CCC2(CC1)CC2 [Compound 134]
O=C(Nc1cc(OC2CCC2)c2occc2c1)c1ccc(NS(=O)(=O)CCO)cc1N1CCC2(CC1)CC2 [Compound 135]
CC1(F)CCN(c2cc(NC(=O)c3ccc(NS(=O)(=O)CCO)cc3N3CCC4(CC3)CC4)cc3ccoc23)C1 (centres unmarked) [Compound 136]
O=C(Nc1cc(N2CCC(F)CC2)c2occc2c1)c1ccc(NS(=O)(=O)CCO)cc1N1CCC2(CC1)CC2 [Compound 137]
O=C(Nc1cc(N2CC3CC3C2)c2occc2c1)c1ccc(NS(=O)(=O)CCO)cc1N1CCC2(CC1)CC2 (centres unmarked) [Compound 138]
CC(C)(CO)Nc1cc(NC(=O)c2ccc(NS(=O)(=O)CCO)cc2N2CCC3(CC2)CC3)cc2ccoc12 [Compound 139]
O=C(Nc1cc(N2CCOCC2)c2occc2c1)c1ccc(NS(=O)(=O)CCO)cc1N1CCC2(CC1)CC2 [Compound 140]
C[C@@H](CO)S(=O)(=O)Nc1ccc(C(=O)Nc2cc(N3CCC(F)(F)CC3)c3occc3c2)c(N2CCC3(CC2)CC3)c1 [Compound 141]
C[C@H](CO)S(=O)(=O)Nc1ccc(C(=O)Nc2cc(N3CCC(F)(F)CC3)c3occc3c2)c(N2CCC3(CC2)CC3)c1 [Compound 142]
C[C@@H]1CN(c2cc(NC(=O)c3ccc(NS(=O)(=O)[C@@H](C)CO)cc3N3CCC4(CC3)CC4)cc3ccoc23)CCO1 [Compound 143]
C[C@@H]1CN(c2cc(NC(=O)c3ccc(NS(=O)(=O)[C@H](C)CO)cc3N3CCC4(CC3)CC4)cc3ccoc23)CCO1 [Compound 144]
O=C(Nc1cc(N2CCC(F)(F)CC2)c2occc2c1)c1ccc(S(=O)(=O)NCCO)cc1N1CCC2(CC1)CC2 [Compound 145]
C[C@@H]1CN(c2cc(NC(=O)c3ccc(S(=O)(=O)NCCO)cc3N3CCC4(CC3)CC4)cc3ccoc23)CCO1 [Compound 146]
C[C@H]1CN(c2cc(NC(=O)c3ccc(S(=O)(=O)NCCO)cc3N3CCC4(CC3)CC4)cc3ccoc23)CCO1 [Compound 147]
O=C(Nc1cc(N2CC(F)(F)C2)c2occc2c1)c1ccc(S(=O)(=O)NCCO)cc1N1CCC2(CC1)CC2 [Compound 148]
O=C(Nc1cc(OCCC(F)(F)F)c2occc2c1)c1ccc(S(=O)(=O)NCCO)cc1N1CCC2(CC1)CC2 [Compound 149]
O=C(Nc1cc(N2CCC3(CC3)C2)c2occc2c1)c1ccc(S(=O)(=O)NCCO)cc1N1CCC2(CC1)CC2 [Compound 150]
O=C(Nc1cc(OC2CCC2)c2occc2c1)c1ccc(S(=O)(=O)NCCO)cc1N1CCC2(CC1)CC2 [Compound 151]
CC1(F)CCN(c2cc(NC(=O)c3ccc(S(=O)(=O)NCCO)cc3N3CCC4(CC3)CC4)cc3ccoc23)C1 (centres unmarked) [Compound 152]
O=C(Nc1cc(N2CCC(F)CC2)c2occc2c1)c1ccc(S(=O)(=O)NCCO)cc1N1CCC2(CC1)CC2 [Compound 153]
O=C(Nc1cc(N2CC3CC3C2)c2occc2c1)c1ccc(S(=O)(=O)NCCO)cc1N1CCC2(CC1)CC2 (centres unmarked) [Compound 154]
